Laboratory results from patent US20210069120A1, “COMPOSITE NANOPARTICLE, PREPARATION METHOD THEREOF AND PREPARATION METHOD OF COMPOSITE NANO PREPARATION USING THEREOF” (JINAN UNIVERSITY, priority 2018, published 2021).

Legend:
[1] = test system: MDA-MB-231 cells; assay: Apoptosis of MDA-MB-231 cells detected by flow cytometry (Annexin V-FITC/PI); format: cell-based, human
Description: After Blank PLN, PTX, PSO, I-PSO, PTX+PSO+I-PSO and (PTX+PSO+I-PSO)-PLN were used to act on the MDA-MB-231 cells respectively, a blank control without drug treatment was set at the same time. Cells were collected, an Annexin V-FITC buffer solution and a propidium iodide (PI) staining solution were added respectively, and cell apoptosis was detected by a flow cytometry, wherein green fluorescence was Annexin V-FITC, and red fluorescence was PI. Annexin V-FITC/PI double staining was dominant in late apoptotic cells and dead cells which referred to an upper right region on a flow cytometry diagram, while AnnexinV-FITC staining was dominant in early apoptotic cells which referred to a lower right region on the flow cytometry diagram. The experiment was repeated for three times.

[2] = test system: MDA-MB-231 cells; assay: MTT proliferation inhibition / toxicity on MDA-MB-231; format: cell-based, human; conditions: 48 hours, concentration range of 0.39 to 100 μmol/L
Description: 4×10^3 MDA-MB-231 cells/well were inoculated into a 96-well plate with a concentration of 100 μL/well, and cultured in a 5% CO2 cell incubator at 37° C. for 24 hours, then a supernatant was removed after 24 hours, and 200 μL of drug-containing medium was added. The final concentrations of the PTX added to the MDA-MB-231 cells were 0.0039 μmol/L, 0.0078 μmol/L, 0.0156 μmol/L, 0.03125 μmol/L, 0.0625 μmol/L, 0.125 μmol/L, 0.25 μmol/L, 0.5 μmol/L and 1 μmol/L. At the same time, a control group (the same amount of culture fluid was added) and a blank zeroing group were set up. Each well was provided with 6 multiple wells and placed in a CO2 incubator for continuous cultivation for 48 hours. […] An OD value was measured at 570 nm of an enzyme reader. […]
(§1) 4×10^3 MDA-MB-231 cells/well were inoculated into a 96-well plate with a concentration of 100 μL/well, and cultured in a 5% CO2 cell incubator at 37° C. for 24 hours, then a supernatant was removed after 24 hours, and 200 μL of drug-containing medium was added. […] An OD value was measured at 570 nm of an enzyme reader. […]
as §1

SMILES | Apoptosis rate (%) of MDA-MB-231 cells [1] [%] | toxicity to the MDA-MB-231 cells (cell viability) [2]
O=c1ccc2ccc3occc3c2o1 [I-PSO, isopsoralen] | 11.5 | 
O=c1ccc2cc3ccoc3cc2o1 [PSO, psoralen] | 13.8 | no obvious toxicity
CC(=O)O[C@H]1C(=O)[C@@]2(C)[C@H]([C@H](OC(=O)c3ccccc3)[C@]3(O)C[C@H](OC(=O)[C@H](O)[C@@H](NC(=O)c4ccccc4)c4ccccc4)C(C)=C1C3(C)C)[C@]1(OC(C)=O)CO[C@@H]1C[C@@H]2O [PTX, paclitaxel] | 15.1 | 
